Tests used:
[1] = system: PCK rats; assay: Hepatic and renal cyst volume and fibrosis score in PCK rats treated with octreotide; assay type: in vivo, rat
Protocol: (§1) Three week old PCK rats (n=60) were divided into five groups (three animals of each gender per treatment group). Each group was divided into two subgroups. […] Each animal was injected intraperitoneally every 12 hours. […] The control groups received an equal volume of saline.
(§2) At 4, 8, 12 and 16 weeks of age, animals were anesthetized with pentobarbital (50 mg/kg body weight, ip). Blood was collected by cardiac puncture for determination of hepatic and renal laboratory parameters and cAMP levels. Liver and kidney tissue sections (5 μm) were stained with hematoxylin-eosin and picrosirius red for analysis using light microscopy. Renal and hepatic fibrosis and cystic scores were measured using Meta-Morph software (Universal Imaging, West Chester, Pa., USA), a light microscope with a color digital camera (Nikon DXM 1200), and a Pentium IBM-compatible computer (Del OptiPlex). To measure the volume of a cyst or fibrosis, a colored threshold was applied at a level that allowed cystic tissue to be distinguished from non-cystic tissue and picrosirius red-positive stained fibrotic tissue to be distinguished from the background. The cystic and fibrotic scores were expressed as a percentage of total tissue.

[2] = system: cAMP levels in bile ducts and serum of PCK rats; assay: cAMP levels in freshly isolated bile ducts and serum of PCK rats treated with octreotide; assay type: in vivo, rat
Protocol: The concentration of cAMP was measured in freshly isolated and cultured bile ducts and in serum. Serum was diluted 1:10 before assay. Cultured bile ducts were first released from the gel by adding 0.4 mL of high-activity type XI collagenase for 45 min. at 37° C. and washing twice with medium. cAMP concentrations were determined using the Bridge-It™ cAMP designer assay (Mediomics, LLC, St. Louis, Mo.). Results were expressed as pmol per μg of DNA. The amount of DNA in a single IBDU was determined using the DNeasy Tissue Kit (QIAGEN Inc., Valencia, Calif.).
(§3) Each group was divided into two subgroups. […] Each animal was injected intraperitoneally every 12 hours. […] The control groups received an equal volume of saline.

[3] = target: SSTR3 (Homo sapiens, UniProt P32745); settings: Froidevaux and Eberle 2002; cited from earlier work
Sequence of SSTR3 (P32745 whole entry, species assumed): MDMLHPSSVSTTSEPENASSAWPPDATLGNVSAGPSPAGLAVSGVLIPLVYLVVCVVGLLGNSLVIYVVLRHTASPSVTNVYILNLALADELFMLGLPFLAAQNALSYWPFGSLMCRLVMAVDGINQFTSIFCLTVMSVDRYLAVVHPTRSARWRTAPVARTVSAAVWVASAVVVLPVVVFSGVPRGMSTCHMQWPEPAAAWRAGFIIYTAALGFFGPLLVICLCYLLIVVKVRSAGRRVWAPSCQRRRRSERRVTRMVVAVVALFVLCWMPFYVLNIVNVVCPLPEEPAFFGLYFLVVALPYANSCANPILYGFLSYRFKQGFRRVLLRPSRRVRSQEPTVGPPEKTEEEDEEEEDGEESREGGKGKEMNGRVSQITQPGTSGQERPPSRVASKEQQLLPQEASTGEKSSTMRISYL

[4] = system: PCK rats; assay: Hepatic and renal laboratory parameters in PCK rats treated with octreotide; settings: for Alkaline Phosphatase / Aspartate Aminotransferase / Bilirubin Direct / Bilirubin Total / Blood Urea Nitrogen / Creatinine / Protein total: Octreotide (10 μg)
Protocol: as §1, §2

[5] = system: PCK rats; assay: Body, liver and kidney weight in PCK rats treated with octreotide; assay type: in vivo, rat
Protocol: as §3

[6] = target: somatostatin receptor 2 (SSTR2) (Homo sapiens, UniProt P30874); settings: Froidevaux and Eberle 2002; cited from earlier work
Sequence of somatostatin receptor 2 (SSTR2) (P30874 whole entry, species assumed): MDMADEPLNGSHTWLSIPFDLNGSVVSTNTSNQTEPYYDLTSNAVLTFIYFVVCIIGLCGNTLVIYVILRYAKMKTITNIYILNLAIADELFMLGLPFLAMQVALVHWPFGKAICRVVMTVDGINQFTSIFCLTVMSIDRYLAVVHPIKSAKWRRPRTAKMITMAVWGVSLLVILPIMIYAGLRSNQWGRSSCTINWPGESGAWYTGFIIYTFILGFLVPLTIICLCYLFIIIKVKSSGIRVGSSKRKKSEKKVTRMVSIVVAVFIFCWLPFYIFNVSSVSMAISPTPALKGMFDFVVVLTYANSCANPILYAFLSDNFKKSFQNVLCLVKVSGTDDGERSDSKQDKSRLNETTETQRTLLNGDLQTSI

[7] = octreotide 10 μg/kg, 4 to 16 weeks
[8] = 100 μg/kg, 4 weeks, vs 10 μg/kg
[9] = octreotide-treated vs saline-treated PCK rats
[10] = Female PCK rats, Group I, 4 weeks of treatment
[11] = Female PCK rats, Group II, 8 weeks of treatment
[12] = Female PCK rats, Group III, 12 weeks of treatment
[13] = Female PCK rats, Group IV, 16 weeks of treatment
[14] = Female PCK rats, HD, 4 weeks of treatment
[15] = Male PCK rats, Group I, 4 weeks of treatment
[16] = Male PCK rats, Group II, 8 weeks of treatment
[17] = Male PCK rats, Group III, 12 weeks of treatment
[18] = Male PCK rats, Group IV, 16 weeks of treatment
[19] = Male PCK rats, HD, 4 weeks of treatment
[20] = Female PCK rats, Group I, 4 weeks of treatment, Octreotide (10 μg)
[21] = Female PCK rats, Group II, 8 weeks of treatment, Octreotide (10 μg)
[22] = Female PCK rats, Group III, 12 weeks of treatment, Octreotide (10 μg)
[23] = Female PCK rats, Group IV, 16 weeks of treatment, Octreotide (10 μg)
[24] = Female PCK rats, HD, 4 weeks of treatment, Octreotide (100 μg)
[25] = Male PCK rats, Group I, 4 weeks of treatment, Octreotide (10 μg)
[26] = Male PCK rats, Group II, 8 weeks of treatment, Octreotide (10 μg)
[27] = Male PCK rats, Group III, 12 weeks of treatment, Octreotide (10 μg)
[28] = Male PCK rats, Group IV, 16 weeks of treatment, Octreotide (10 μg)
[29] = Male PCK rats, HD, 4 weeks of treatment, Octreotide (100 μg)

C[C@@H](O)[C@@H]1NC(=O)[C@H](CCCCN)NC(=O)[C@@H](Cc2c[nH]c3ccccc23)NC(=O)[C@H](Cc2ccccc2)NC(=O)[C@@H](NC(=O)[C@H](N)Cc2ccccc2)CSSC[C@@H](C(=O)N[C@H](CO)[C@@H](C)O)NC1=O [Octreotide, octreotide]
cystic volume and fibrosis score in liver and kidney at higher dose ([1]; higher dose (100 μg/kg, 4 weeks)): even more significant reduction
hepatic fibrosis ([1]; octreotide 10 μg/kg): significant reduction
renal fibrosis ([1]; octreotide 10 μg/kg): significant reduction
cystic volume in kidney [1, 7]: decreased consistently and progressively
cystic volume in liver [1, 7]: decreased consistently and progressively
cAMP concentration in bile duct and serum at higher dose [2, 8]: to an even greater extent
cAMP levels in freshly isolated bile ducts [2, 9]: lowered
cAMP levels in serum [2, 9]: lowered
binding affinity [3]: low affinity
Alkaline Phosphatase [4, 10]: 238.5 ± 23.5 U/L
Aspartate Aminotransferase [4, 10]: 135.0 ± 11.4 U/L
Bilirubin Direct [4, 10]: 0.1 mg/dL
Bilirubin Total [4, 10]: 0.2 mg/dL
Blood Urea Nitrogen [4, 10]: 16.7 ± 0.3 mg/dL
Creatinine [4, 10]: 0.55 ± 0.06 mg/dL
Protein total [4, 10]: 5.70 ± 0.20 g/dL
Aspartate Aminotransferase [4, 11]: 211.2 ± 48.4 U/L
Bilirubin Direct [4, 11]: 0.1 mg/dL
Bilirubin Total [4, 11]: 0.23 ± 0.03 mg/dL
Blood Urea Nitrogen [4, 11]: 15.7 ± 1.2 mg/dL
Creatinine [4, 11]: 0.57 ± 0.03 mg/dL
Protein total [4, 11]: 5.53 ± 0.18 g/dL
Alkaline Phosphatase [4, 12]: 237.0 ± 22.1 U/L
Aspartate Aminotransferase [4, 12]: 207.5 ± 31.5 U/L
Bilirubin Direct [4, 12]: 0.1 mg/dL
Bilirubin Total [4, 12]: 0.2 mg/dL
Blood Urea Nitrogen [4, 12]: 20.5 ± 0.5 mg/dL
Creatinine [4, 12]: 0.6 mg/dL
Protein total [4, 12]: 5.2 ± 0.17 g/dL
Alkaline Phosphatase [4, 13]: 156.7 ± 4.3 U/L
Aspartate Aminotransferase [4, 13]: 165.0 ± 36.46 U/L
Bilirubin Direct [4, 13]: 0.1 mg/dL
Bilirubin Total [4, 13]: 0.2 mg/dL
Blood Urea Nitrogen [4, 13]: 20.5 ± 0.9 mg/dL
Creatinine [4, 13]: 0.63 ± 0.03 mg/dL
Protein total [4, 13]: 5.6 ± 0.08 g/dL
Alkaline Phosphatase [4, 14]: 292.5 ± 14.3 U/L
Aspartate Aminotransferase [4, 14]: 197.4 ± 25.7 U/L
Bilirubin Direct [4, 14]: 0.1 mg/dL
Bilirubin Total [4, 14]: 0.2 mg/dL
Blood Urea Nitrogen [4, 14]: 17.0 ± 2.6 mg/dL
Creatinine [4, 14]: 0.6 mg/dL
Protein total [4, 14]: 5.3 ± 0.12 g/dL
Alkaline Phosphatase [4, 15]: 264.5 ± 41.5 U/L
Aspartate Aminotransferase [4, 15]: 212.7 ± 41.1 U/L
Bilirubin Direct [4, 15]: 0.1 mg/dL
Bilirubin Total [4, 15]: 0.17 ± 0.0 mg/dL
Blood Urea Nitrogen [4, 15]: 16.0 ± 0.6 mg/dL
Creatinine [4, 15]: 0.49 ± 0.04 mg/dL
Protein total [4, 15]: 5.74 ± 0.19 g/dL
Alkaline Phosphatase [4, 16]: 305.3 ± 20.4 U/L
Aspartate Aminotransferase [4, 16]: 188.1 ± 20.6 U/L
Bilirubin Direct [4, 16]: 0.1 mg/dL
Bilirubin Total [4, 16]: 0.2 mg/dL
Blood Urea Nitrogen [4, 16]: 18.3 ± 1.6 mg/dL
Creatinine [4, 16]: 0.6 mg/dL
Protein total [4, 16]: 5.22 ± 1.4 g/dL
Alkaline Phosphatase [4, 17]: 210.5 ± 24.5 U/L
Aspartate Aminotransferase [4, 17]: 181.7 ± 39.2 U/L
Bilirubin Direct [4, 17]: 0.1 mg/dL
Bilirubin Total [4, 17]: 0.3 mg/dL
Blood Urea Nitrogen [4, 17]: 21.5 ± 1.5 mg/dL
Creatinine [4, 17]: 0.6 mg/dL
Protein total [4, 17]: 5.2 ± 0.03 g/dL
Alkaline Phosphatase [4, 18]: 189.5 ± 18.5 U/L
Aspartate Aminotransferase [4, 18]: 145.1 ± 49.51 U/L
Bilirubin Direct [4, 18]: 0.1 mg/dL
Bilirubin Total [4, 18]: 0.2 mg/dL
Blood Urea Nitrogen [4, 18]: 20.3 ± 0.8 mg/dL
Creatinine [4, 18]: 0.65 ± 0.05 mg/dL
Protein total [4, 18]: 5.4 ± 0.35 g/dL
Alkaline Phosphatase [4, 19]: 276.8 ± 31.2 U/L
Aspartate Aminotransferase [4, 19]: 191.0 ± 24.4 U/L
Bilirubin Direct [4, 19]: 0.1 mg/dL
Bilirubin Total [4, 19]: 0.2 mg/dL
Blood Urea Nitrogen [4, 19]: 17.1 ± 1.2 mg/dL
Creatinine [4, 19]: 0.5 mg/dL
Protein total [4, 19]: 5.4 ± 0.15 g/dL
hepatic or renal function ([4]; any dose administered (10 or 100 μg/kg ip every 12 hours)): did not affect
effect on liver and kidney weights at higher dose [5, 8]: more significant effect
Kidney weight [5, 20]: 1.31 ± 0.04 % body weight
Kidney weight, decrease (↓) vs saline [5, 20]: (↓11.8%)
Liver weight [5, 20]: 5.34 ± 00.24 % body weight
Liver weight, decrease (↓) vs saline [5, 20]: (↓10.5%)
Kidney weight [5, 21]: 1.35 ± 0.06 % body weight
Kidney weight, decrease (↓) vs saline [5, 21]: (↓15.0%)
Liver weight [5, 21]: 5.37 ± 0.22 % body weight
Liver weight, decrease (↓) vs saline [5, 21]: (↓15.8%)
Kidney weight [5, 22]: 1.42 ± 0.11 % body weight
Kidney weight, decrease (↓) vs saline [5, 22]: (↓17.9%)
Liver weight [5, 22]: 5.43 ± 0.24 % body weight
Liver weight, decrease (↓) vs saline [5, 22]: (↓18.8%)
Kidney weight [5, 23]: 1.48 ± 0.13 % body weight
Kidney weight, decrease (↓) vs saline [5, 23]: (↓20.6%)
Liver weight [5, 23]: 5.62 ± 0.25 % body weight
Liver weight, decrease (↓) vs saline [5, 23]: (↓21.9%)
Kidney weight [5, 24]: 1.14 ± 0.07 % body weight
Kidney weight, decrease (↓) vs saline [5, 24]: (↓18.6%)
Liver weight [5, 24]: 4.7 ± 0.35 % body weight
Liver weight, decrease (↓) vs saline [5, 24]: (↓19.1%)
Kidney weight [5, 25]: 1.43 ± 0.04 % body weight
Kidney weight, decrease (↓) vs saline [5, 25]: (↓11.2%)
Liver weight [5, 25]: 4.76 ± 0.07 % body weight
Liver weight, decrease (↓) vs saline [5, 25]: (↓9.0%)
Kidney weight [5, 26]: 1.52 ± 0.11 % body weight
Kidney weight, decrease (↓) vs saline [5, 26]: (↓14.6%)
Liver weight [5, 26]: 5.24 ± 0.57 % body weight
Liver weight, decrease (↓) vs saline [5, 26]: (↓12.8%)
Kidney weight [5, 27]: 1.53 ± 0.15 % body weight
Kidney weight, decrease (↓) vs saline [5, 27]: (↓16.8%)
Liver weight [5, 27]: 5.31 ± 0.46 % body weight
Liver weight, decrease (↓) vs saline [5, 27]: (↓17.2%)
Kidney weight [5, 28]: 1.57 ± 0.12 % body weight
Kidney weight, decrease (↓) vs saline [5, 28]: (↓18.9%)
Liver weight [5, 28]: 5.64 ± 0.14 % body weight
Liver weight, decrease (↓) vs saline [5, 28]: (↓19.9%)
Kidney weight [5, 29]: 1.27 ± 0.13 % body weight
Kidney weight, decrease (↓) vs saline [5, 29]: (↓19.3%)
Liver weight [5, 29]: 4.18 ± 0.11 % body weight
Liver weight, decrease (↓) vs saline [5, 29]: (↓15.1%)
liver and kidney weights vs saline ([5]; each group studied): significantly decreased
body weight vs saline-treated ([5]; male or female PCK rats): No differences
binding affinity [6]: high affinity
